Assay [1] addresses T1, Amine oxidase [flavin-containing] A (Homo sapiens, UniProt P21397).
T1 sequence (P21397 whole entry): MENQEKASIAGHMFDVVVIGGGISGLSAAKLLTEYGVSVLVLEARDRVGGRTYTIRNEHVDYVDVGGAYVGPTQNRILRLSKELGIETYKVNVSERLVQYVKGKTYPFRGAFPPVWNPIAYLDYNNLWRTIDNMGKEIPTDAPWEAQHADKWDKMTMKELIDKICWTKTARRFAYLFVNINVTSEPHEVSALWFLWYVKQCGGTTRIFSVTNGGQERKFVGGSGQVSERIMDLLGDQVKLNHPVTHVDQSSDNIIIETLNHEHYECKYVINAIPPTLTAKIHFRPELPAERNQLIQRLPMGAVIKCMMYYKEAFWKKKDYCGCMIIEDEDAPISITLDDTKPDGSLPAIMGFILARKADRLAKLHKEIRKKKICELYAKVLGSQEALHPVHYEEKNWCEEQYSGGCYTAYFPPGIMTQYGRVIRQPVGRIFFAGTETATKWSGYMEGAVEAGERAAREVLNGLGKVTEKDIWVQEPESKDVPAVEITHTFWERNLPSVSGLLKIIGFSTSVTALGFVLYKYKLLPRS
The assay is described as follows: Tested for inhibition- binding affinity against monoamine oxidase A catalyzed oxidation. The note with it: read-out: kon (M-1-s-1).

The target in assay [2] is T2, Amine oxidase [flavin-containing] B (Bos taurus, UniProt P56560).
T2 sequence (P56560 whole entry): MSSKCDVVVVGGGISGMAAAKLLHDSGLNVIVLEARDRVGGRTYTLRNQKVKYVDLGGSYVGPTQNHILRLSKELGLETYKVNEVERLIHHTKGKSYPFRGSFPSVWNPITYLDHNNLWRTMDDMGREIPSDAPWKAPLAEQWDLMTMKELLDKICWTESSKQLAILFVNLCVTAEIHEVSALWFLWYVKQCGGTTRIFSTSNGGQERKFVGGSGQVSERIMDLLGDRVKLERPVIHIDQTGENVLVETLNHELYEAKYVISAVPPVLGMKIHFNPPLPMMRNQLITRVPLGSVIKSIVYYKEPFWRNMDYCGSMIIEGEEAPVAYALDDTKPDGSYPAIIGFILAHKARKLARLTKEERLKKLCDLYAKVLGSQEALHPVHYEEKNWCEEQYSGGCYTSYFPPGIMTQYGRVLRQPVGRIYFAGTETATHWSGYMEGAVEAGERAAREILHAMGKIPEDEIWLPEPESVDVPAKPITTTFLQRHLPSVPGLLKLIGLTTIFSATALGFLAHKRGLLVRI
The assay is described as follows: Tested for inhibition- binding affinity against monoamine oxidase B catalyzed oxidation. The note with it: read-out: kon (M-1-s-1).

The structures appear in SMILES notation.

The term kon denotes the rate constant with which the complex forms. Consider `C1=C(c2ccccc2-c2ccccc2)CCN(C2CC2)C1`, for which the kon in assay [1] is 220000 M⁻¹ s⁻¹.

With `C1=C(c2ccccc2)CCN(C2CC2)C1`, the kon stood at 50000 M⁻¹ s⁻¹ in assay [1] and 180000 M⁻¹ s⁻¹ in assay [2].

As for `C1=C(c2ccc3ccccc3c2)CCN(C2CC2)C1`, the on-rate constant (kon) was 380000 M⁻¹ s⁻¹ in assay [1] and 150000 M⁻¹ s⁻¹ in assay [2].

Turning to `C1=C(c2cccc(-c3ccccc3)c2)CCN(C2CC2)C1`, the results for the kon in assay [1] and in assay [2] were 680000 M⁻¹ s⁻¹ and 440000 M⁻¹ s⁻¹, respectively.

For the molecule `C1=C(c2cccc3ccccc23)CCN(C2CC2)C1`, the kon in assay [1] stood at 400000 M⁻¹ s⁻¹; in assay [2], 110000 M⁻¹ s⁻¹.
